{"source": "patent US10526581B2", "about": "“Modulation of cardiac stem-progenitor cell differentiation, assays and uses thereof” (priority 2013, dated 2020)", "key": {"[1]": {"test_system": "rats with ISO+5-FU cardiomyopathy", "experiment": "hemodynamic measurements (LV catheterization) after tail vein cell injection in ISO+5-FU cardiomyopathy", "assay_type": "in vivo, rat", "conditions": "(84 d) 3 months"}, "[2]": {"test_system": "rats with ISO+5-FU cardiomyopathy", "experiment": "echocardiography after tail vein cell injection in ISO+5-FU cardiomyopathy", "assay_type": "in vivo, rat", "conditions": "(84 d) 3 months"}, "adult rat myocardium [3]": {"test_system": "adult rat myocardium", "conditions": "single high dose of ISO; cited from earlier work"}, "rats after ISO damage": {"test_system": "rats after ISO damage", "conditions": "at 28 days"}, "adult rat myocardium [4]": {"test_system": "adult rat myocardium", "experiment": "diffuse myocardial damage by single ISO injection in rats: eCSC activation", "assay_type": "in vivo", "text": "Adult c-kit^poseCSCs are scattered throughout the myocardium with higher density within the atria and the ventricular apex (10). When the apical myocardium is severely injured by catecholamine overdrives, induced through Isoproterenol bolus injection, c-kit^poseCSCs are rapidly activated and respond to damage by increasing their number (16) and differentiate into cardiomyocyte lineage (Unpublished data). The same growth response by these cells is detectable in the ischemic myocardium (17) as well as in hearts with pathologic or physiological overload (18,19). During embryonic life, a progressive process of cell specification or commitment, precisely regulated in space and time, determine cardiac muscle cell creation from cardiac progenitor cells (20). In the latter phenomenon, “cell-autonomous” decisions (intrinsic to a cell) are accompanied by “cell-non-autonomous” events, which entail extracellular cardiomyogenic instructive molecules known as morphogens or cardiopoietic growth factors (cGFs) (8,9). […] The mRNA levels for different cGFs and their detection by immunohistochemistry correlated with the levels of the corresponding protein (FIG. 4).\nDiffuse myocardial damage was induced by a single injection (s.c.) of isoproterenol (ISO) to rats (5 mg kg^−1) or mice (200 mg kg^−1). […] Mer-CreMer mice were kindly provided by Drs. Tammie Bishop and Ludwig Thierfelder (see below). ZEG and RYP mice were purchased at Jackson Laboratory.\nTo follow c-kit^poseCSC physiological response to cardiac injury, we induced severe diffuse myocardial damage in adult rats with a single high dose of isoproterenol (ISO) (Ellison et al., 2007b). New cell formation was monitored with BrdU labeling in vivo (Waring et al., 2012). In the presence of a patent coronary circulation, ISO produces a Takotsubo-like cardiomyopathy (Akashi et al., 2008) with both diffuse sub-endocardial and apical CM death. This acute insult kills 8-10% of the LV CMs and results in overt acute heart failure (Ellison et al., 2007b). […] While in the normal myocardium (CTRL) most c-kit^poseCSCs are quiescent (>90% BrdU^neg and Ki67^neg), after ISO damage a high fraction enters the cell cycle (FIG. 14A-C and FIG. 21). At day 3, ˜88% are BrdU^pos (FIG. 14C), leading to an ˜8-fold increase in eCSC number, which decreases thereafter but remains above CTRL for up to 28 days (FIG. 14A).\nThe expansion of the eCSC pool in response to CM loss by ISO damage was followed by their commitment to myocardial cell lineages. […]"}, "mouse heart": {"test_system": "mouse heart", "experiment": "ISO injury in Lenti-c-kit/Cre recombined RYP mice (c-kit^pos eCSC fate map)", "assay_type": "in vivo", "conditions": "28 days after ISO"}, "[5]": {"test_system": "adult myocytes isolated from Tg^c-kit/GFP mice", "experiment": "ISO in vitro on adult myocytes isolated from Tg^c-kit/GFP mice", "assay_type": "cell-based, mouse", "conditions": "ISO 10 nM, cultured for 48 hrs"}}, "data": [{"molecule": "CC(C)NCC(O)c1ccc(O)c(O)c1", "note": "(stereo not drawn) [ISO, isoproterenol]", "values": [{"measurement": "LVDevP", "setting": "[1]", "result": "98.9 ± 10.6", "unit": "mmHg"}, {"measurement": "LVEDP", "setting": "[1]", "result": "2.2 ± 2.3", "unit": "mmHg"}, {"measurement": "dP/dt+", "setting": "[1]", "result": "8344 ± 1294", "unit": "mmHg/s"}, {"measurement": "dP/dt−", "setting": "[1]", "result": "7936 ± 1072", "unit": "mmHg/s"}, {"measurement": "EF", "setting": "[2]", "result": "88.6 ± 2.56", "unit": "%"}, {"measurement": "FS", "setting": "[2]", "result": "51.7 ± 3.7", "unit": "%"}, {"measurement": "LVIDd", "setting": "[2]", "result": "5.25 ± 0.42", "unit": "mm"}, {"measurement": "LVIDs", "setting": "[2]", "result": "2.53 ± 0.31", "unit": "mm"}, {"measurement": "LV CMs killed", "setting": "adult rat myocardium [3]", "result": "8-10%"}, {"measurement": "mortality", "setting": "rats after ISO damage", "result": "0 of 10"}, {"measurement": "expression of cardiopoietic growth factors in the myocardium", "setting": "adult rat myocardium [4]; after ISO injection", "result": "significantly increased expression"}, {"measurement": "increase of c-kit^posNkx2.5^posGATA4^pos cells over CTRL", "setting": "adult rat myocardium [4]; by day 3 after ISO", "result": "~4", "unit": "fold"}, {"measurement": "BrdU^pos c-kit^pos eCSCs", "setting": "adult rat myocardium [4]; day 3 after ISO", "result": "~88", "unit": "%"}, {"measurement": "increase in eCSC number", "setting": "adult rat myocardium [4]; day 3 after ISO", "result": "~8", "unit": "fold"}, {"measurement": "newly-formed (BrdU^pos) CMs", "setting": "mouse heart", "result": "9.5±2", "unit": "%"}, {"measurement": "YFP^pos cells in the unfixed CM preparation (FACS)", "setting": "mouse heart; LV apex", "result": "8.3±1", "unit": "%"}, {"measurement": "EYFP positive CMs, % of total BrdU^pos CMs", "setting": "mouse heart; LV", "result": "43±3", "unit": "%"}, {"measurement": "EYFP positive CMs, % of total BrdU^pos CMs", "setting": "mouse heart; apex", "result": "74±7", "unit": "%"}, {"measurement": "YFP^pos cells in the unfixed CM preparation (FACS)", "setting": "mouse heart; total LV", "result": "2.9±0.5", "unit": "%"}, {"measurement": "ANP expression (fetal myocyte gene program)", "setting": "[5]", "result": "increased ANP expression"}, {"measurement": "c-kit/GFP transcription in adult myocytes", "setting": "[5]", "result": "unable to activate"}]}]}
